The record followed here is PMC11477877, “Carbohydrate-Binding Mechanism of the Coagulant Lectin from Moringa oleifera Seeds (cMoL) Is Related to the Dimeric Protein Structure” (Molecules, 2024).

The assay has as its target T1, cMoL (coagulant lectin from Moringa oleifera seeds) (Moringa oleifera, UniProt Z9EIH6G9R5).
T1 construct: native, purified from seeds (ammonium sulfate, guar gel column); 101 residues; homodimer
T1 sequence (Z9EIH6G9R5 1-101): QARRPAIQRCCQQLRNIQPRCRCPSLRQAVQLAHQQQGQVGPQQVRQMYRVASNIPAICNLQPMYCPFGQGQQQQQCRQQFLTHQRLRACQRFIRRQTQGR
Description: intrinsic fluorescence quenching, modified Stern-Volmer. The format is binding. The settings on record: 298 K; water; excitation 280 nm; Hill h ~2 (dimer). An excerpt: intrinsic fluorescence quenching, modified Stern-Volmer on cMoL (coagulant lectin from Moringa oleifera seeds)

As to `OC[C@H]1OC(O)[C@H](O)[C@@H](O)[C@@H]1O` (some centres unmarked) [glucose], the “Ka (10^2 M^-1)” value is reported as 0.2979 ± 0.00007 10^2 M^-1. To `OC[C@H]1OC(O)[C@H](O)[C@@H](O)[C@H]1O` (some centres unmarked) [galactose] belongs 0.1239 ± 0.00004 10^2 M^-1.
